What was measured:
[1] = molecular target: T1, human V1a receptor (Homo sapiens, UniProt P37288); experiment: Cellular in vitro assay for determining the vasopressin receptor activity (aequorin luminescence, recombinant CHO cells), human V1a; assay type: cell-based; details: CHO cells expressing aequorin, transfected with human V1a receptor; agonist [Arg8]-vasopressin; read-out: IC50 hV1a
T1 construct: expressed in transfected cells; host or cells: CHO K1 (ATCC), constitutively expressing modified aequorin
T1 sequence (P37288 whole entry): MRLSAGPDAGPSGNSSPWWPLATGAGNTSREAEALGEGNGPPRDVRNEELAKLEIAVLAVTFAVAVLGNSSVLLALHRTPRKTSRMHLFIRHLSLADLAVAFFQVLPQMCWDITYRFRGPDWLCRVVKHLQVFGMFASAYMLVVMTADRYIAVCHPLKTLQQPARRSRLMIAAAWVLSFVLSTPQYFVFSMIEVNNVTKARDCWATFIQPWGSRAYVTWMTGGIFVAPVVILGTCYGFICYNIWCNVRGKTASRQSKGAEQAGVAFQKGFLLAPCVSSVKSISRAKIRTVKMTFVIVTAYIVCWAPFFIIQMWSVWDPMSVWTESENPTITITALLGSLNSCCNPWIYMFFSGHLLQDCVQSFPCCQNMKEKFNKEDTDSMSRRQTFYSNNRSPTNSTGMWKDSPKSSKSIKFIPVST
Excerpt: (§1) B-1. Cellular In Vitro Assay for Determining the Vasopressin Receptor Activity
(§2) The identification of agonists and antagonists of the V1a and V2 vasopressin receptors from humans and rats and also the quantification of the activity of the substances described here takes place using recombinant cell lines. These cells derive originally from a hamster's ovary epithelial cell (Chinese Hamster Ovary, CHO K1, ATCC: American Type Culture Collection, Manassas, Va. 20108, USA). The test cell lines constitutively express a modified form of the calcium-sensitive photoprotein aequorin, which, after reconstitution with the cofactor coelenterazine, emits light when there are increases in the free calcium concentration (Rizzuto R., Simpson A. W., Brini M., Pozzan T.; Nature 358 (1992) 325-327). In addition, the cells are stably transfected with the human or rat V1a or V2 receptors. In the case of the Gs-coupling V2 receptors, the cells are stably transfected with a further gene, which codes for the promiscuous Gα16 protein (Amatruda T. T., Steele D. A., Slepak V. Z., Simon M A., Proc. Na. Acad. Sci. USA 88 (1991), 5587-5591), either independently or as a fusion gene. The resulting vasopressin receptor test cells react to stimulation of the recombinantly expressed vasopressin receptors by intracellular release of calcium ions, which can be quantified by the resulting aequorin luminescence using a suitable luminometer (Milligan G., Marshall F., Rees S., Trends in Pharmaco. Sci. 17 (1996) 235-237).
(§3) On the day before the assay, the cells are plated out in culture medium (DMEM, 10% FCS, 2 mM glutamine, 10 mM HEPES) in 384-well microtiter plates and kept in a cell incubator (96% atmospheric humidity, 5% v/v carbon dioxide, 37° C.). On the day of the assay, the culture medium is replaced by a Tyrode solution (140 mM sodium chloride, 5 mM potassium chloride, 1 mM magnesium chloride, 2 mM calcium chloride, 20 mM glucose, 20 mM HEPES), which additionally contains the cofactor coelenterazine (50 μM), and the microtiter plate is then incubated for a further 3-4 hours. The test substances in various concentrations are placed for 10 to 20 minutes in the wells of the microtiter plate before the agonist [Arg8]-vasopressin is added, and the resulting light signal is measured immediately in the luminometer. The IC50 values are calculated using the GraphPad PRISM computer program (Version 3.02).
(§4) Table A below lists representative IC50 values for the compounds according to the invention transfected with the human V1a or V2 receptor: […]

[2] = molecular target: T2, human V2 receptor (Homo sapiens, UniProt P30518); experiment: Cellular in vitro assay for determining the vasopressin receptor activity (aequorin luminescence, recombinant CHO cells), human V2; assay type: cell-based; details: CHO cells expressing aequorin and Gα16, transfected with human V2 receptor; agonist [Arg8]-vasopressin; read-out: IC50 hV2
T2 construct: expressed in transfected cells; host or cells: CHO K1 (ATCC), constitutively expressing modified aequorin, co-transfected with promiscuous G-alpha-16
T2 sequence (P30518 whole entry): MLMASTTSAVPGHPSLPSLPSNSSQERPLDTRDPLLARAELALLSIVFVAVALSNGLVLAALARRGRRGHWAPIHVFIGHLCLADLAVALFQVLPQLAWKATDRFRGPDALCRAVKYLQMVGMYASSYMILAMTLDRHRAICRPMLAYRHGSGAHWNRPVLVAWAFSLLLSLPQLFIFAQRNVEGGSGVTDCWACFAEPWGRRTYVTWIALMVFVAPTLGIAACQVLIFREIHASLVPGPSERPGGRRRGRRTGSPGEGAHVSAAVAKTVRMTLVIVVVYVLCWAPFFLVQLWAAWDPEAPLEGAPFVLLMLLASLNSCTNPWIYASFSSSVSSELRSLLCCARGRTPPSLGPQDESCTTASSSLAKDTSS
Excerpt: as §1, §2, §3, §4

| SMILES | IC50 [1] | IC50 [2] |
| --- | --- | --- |
| COC(=O)CCNC(=O)C(NC(=O)Cn1nc(-c2ccc(Cl)cc2)n(C2CC2)c1=O)c1cccc(C(F)(F)F)c1 (racemic) [Example 15, Methyl N-{({[3-(4-chlorophenyl)-4-cyclopropyl-5-oxo-4,5-dihydro-1H-1,2,4-triazol-1-yl]acetyl}-amino) [3-(trifluoromethyl)phenyl]acetyl}-beta-alaninate] | 12 nM | 310 nM |
| O=C(C[C@H](NC(=O)Cn1nc(-c2ccc(Cl)cc2)n(C[C@H](O)C(F)(F)F)c1=O)c1ccccc1C(F)(F)F)NCCO [Example 53, (3S)-3-[({3-(4-Chlorophenyl)-5-oxo-4-[(2S)-3,3,3-trifluoro-2-hydroxypropyl]-4,5-dihydro-1H-1,2,4-triazol-1-yl}acetyl)amino]-N-(2-hydroxyethyl)-3-[2-(trifluoromethyl)phenyl]propanamide] | 0.9 nM | 2.6 nM |
| O=C(Cn1nc(-c2ccc(Cl)cc2)n(C[C@H](O)C(F)(F)F)c1=O)NC(C(=O)NCCOC(F)(F)F)c1cccc(C(F)(F)F)c1 (single isomer, unassigned) [Example 59] | 136 nM | 61 nM |
| O=C(O)CCNC(=O)C(NC(=O)Cn1nc(-c2ccc(Cl)cc2)n(C2CC2)c1=O)c1cccc(C(F)(F)F)c1 (racemic) [Example 16, N-{({[3-(4-Chlorophenyl)-4-cyclopropyl-5-oxo-4,5-dihydro-1H-1,2,4-triazol-1-yl]acetyl}amino) [3-(trifluoromethyl)phenyl]acetyl}-beta-alanine] | 524 nM | 262 nM |
| CC(C)(CO)NC(=O)C(NC(=O)Cn1nc(-c2ccc(Cl)cc2)n(C[C@H](O)C(F)(F)F)c1=O)c1cccc(C(F)(F)F)c1 (single isomer, unassigned) [Example 41] | 1.5 nM | 3.6 nM |
| CC(C)(NC(=O)[C@](C)(NC(=O)Cn1nc(-c2ccc(Cl)cc2)n(C[C@H](O)C(F)(F)F)c1=O)c1cccc(C(F)(F)F)c1)C(N)=O [Example 22, N^2-{(2R)-2-[({3-(4-Chlorophenyl)-5-oxo-4-[(2S)-3,3,3-trifluoro-2-hydroxypropyl]-4,5-dihydro-1H-1,2,4-triazol-1-yl}acetyl)amino]-2-[3-(trifluoromethyl)phenyl}propanoyl]-2-methylalaninamide] | 1.2 nM | 2.7 nM |
| NC(=O)CCNC(=O)C(NC(=O)Cn1nc(-c2ccc(Cl)cc2)n(C[C@H](O)C(F)(F)F)c1=O)c1cccc(C(F)(F)F)c1 (single isomer, unassigned) [Example 17] | 1420 nM | 22 nM |
| NC(=O)CCNC(=O)C(NC(=O)Cn1nc(-c2ccc(Cl)cc2)n(C[C@H](O)C(F)(F)F)c1=O)c1cccc(C(F)(F)F)c1 (single isomer, unassigned) [Example 18] | 1.2 nM | 1.9 nM |
| COC(=O)C(C)(C)NC(=O)[C@](C)(NC(=O)Cn1nc(-c2ccc(Cl)cc2)n(C[C@H](O)C(F)(F)F)c1=O)c1cccc(C(F)(F)F)c1 [Example 20, Methyl N-{(2R)-2-[({3-(4-chlorophenyl)-5-oxo-4-[(2S)-3,3,3-trifluoro-2-hydroxypropyl]-4,5-dihydro-1H-1,2,4-triazol-1-yl}acetyl)amino]-2-[3-(trifluoromethyl)phenyl]propanoyl}-2-methylalaninate] | 2.4 nM | 4.5 nM |
| O=C(Cn1nc(-c2ccc(Cl)cc2)n(C[C@H](O)C(F)(F)F)c1=O)NC(C(=O)NCCO)c1cccc(C(F)(F)F)c1 (stereo partly drawn) [Example 49, 2-[({3-(4-Chlorophenyl)-5-oxo-4-[(2S)-3,3,3-trifluoro-2-hydroxypropyl]-4,5-dihydro-1H-1,2,4-triazol-1-yl}acetyl)amino]-N-(2-hydroxyethyl)-2-[3-(trifluoromethyl)phenyl]acetamide] | 2.2 nM | 7.6 nM |
| CC(C)(NC(=O)C(NC(=O)Cn1nc(-c2ccc(Cl)cc2)n(C[C@H](O)C(F)(F)F)c1=O)c1cccc(C(F)(F)F)c1)C(=O)O (single isomer, unassigned) [Example 25] | 502 nM | 282 nM |
| CC(C)(NC(=O)C[C@H](NC(=O)Cn1nc(-c2ccc(Cl)cc2)n(C[C@H](O)C(F)(F)F)c1=O)c1cccc(C(F)(F)F)c1)C(=O)O [Example 39, N-{(3S)-3-[({3-(4-Chlorophenyl)-5-oxo-4-[(2S)-3,3,3-trifluoro-2-hydroxypropyl]-4,5-dihydro-1H-1,2,4-triazol-1-yl}acetyl)amino]-3-[3-(trifluoromethyl)phenyl]propanoyl}-2-methylalanine] | 4.9 nM | 0.8 nM |
| COCCNC(=O)C(NC(=O)Cn1nc(-c2ccc(Cl)cc2)n(C[C@H](O)C(F)(F)F)c1=O)c1ccccc1C(F)(F)F (stereo partly drawn) [Example 56, 2-[({3-(4-Chlorophenyl)-5-oxo-4-[(2S)-3,3,3-trifluoro-2-hydroxypropyl]-4,5-dihydro-1H-1,2,4-triazol-1-yl}acetyl)amino]-N-(2-methoxyethyl)-2-[2-(trifluoromethyl)phenyl]acetamide] | 3 nM | 144 nM |
| O=C(O)CCNC(=O)C(NC(=O)Cn1nc(-c2ccc(Cl)cc2)n(C[C@H](O)C(F)(F)F)c1=O)c1cccc(C(F)(F)F)c1 (stereo partly drawn) [Example 14, N-{[({3-(4-Chlorophenyl)-5-oxo-4-[(2S)-3,3,3-trifluoro-2-hydroxypropyl]-4,5-dihydro-1H-1,2,4-triazol-1-yl}acetyl)amino][3-(trifluoromethyl)phenyl]acetyl}-beta-alanine] | 53 nM | 9 nM |
| CC(C)(NC(=O)C[C@H](NC(=O)Cn1nc(-c2ccc(Cl)cc2)n(C[C@H](O)C(F)(F)F)c1=O)c1cccc(C(F)(F)F)c1)C(N)=O [Example 40, N^2-{(3S)-3-[({3-(4-Chlorophenyl)-5-oxo-4-[(2S)-3,3,3-trifluoro-2-hydroxypropyl]-4,5-dihydro-1H-1,2,4-triazol-1-yl}acetyl)amino]-3-[3-(trifluoromethyl)phenyl]propanoyl}-2-methylalaninamide] | 11.1 nM | 8.1 nM |
